The subject of the experiment is clinical isolates of Aspergillus fumigatus. Put plainly: Broth microdilution checkerboard MIC, RPMI medium (pH 7.0), drugs alone and combined. It counts as cell-based. The note with it: for MIC: Aspergillus fumigatus. The procedure: The broth microdillution method using RPMI medium (pH 7.0) was used, comparing the each drug alone (Test Compound, AMPH-B, ITCZ, Nikkomycin X and 5-FC) and combined for each clinical isolates of Aspergillus fumigatus. A combination of drug concentrations was evaluated by the checkerboard method.
All tubes were examined macroscopically for growth and compared to a control (no drug). MIC was visually determined as the lowest concentration resulting in prominent decrease in turbidity compared to controls.
The Fractional Inhibitory Concentration (FIC) for each drug in mixture wells was compared to the MIC for each drug alone. The FIC index was calculated from the sum of the FICs for the two drugs. A quantitative expression of the interaction for inhibition is as follows: Synergy≦0.5; Test Result In vitro combination with Test Compound and AMPH-B against A. fumigatus
In general terms: In broth dilution the organism is exposed to a series of concentrations in liquid medium.

Where two headings read alike, the source gives them in different places. A value given as a limit tells only on which side of the number the result lay.

`Nc1[nH]c(=O)ncc1F` [5-FC, flucytosine]: the “MIC 5-FC Combination” value (A. fumigatus FP1990, in combination with Test Compound) is 8 µg/mL. Moreover, the minimum inhibitory concentration (MIC) (in general, the lowest concentration found to suppress growth) (A. fumigatus FP1990, drug alone, read-out: MIC 5-FC Alone) is more than 32 µg/mL.
For `C[C@@H]1[C@H](O)[C@@H](C)/C=C/C=C/C=C/C=C/C=C/C=C/C=C/[C@H](O[C@@H]2O[C@H](C)[C@@H](O)[C@H](N)[C@@H]2O)C[C@@H]2O[C@](O)(C[C@@H](O)C[C@@H](O)[C@H](O)CC[C@@H](O)C[C@@H](O)CC(=O)O[C@H]1C)C[C@H](O)[C@H]2C(=O)O` [AMPH-B, amphotericin B], under “A. fumigatus 8004, drug alone”, the “MIC AMPH-B Alone” value came to 2 µg/mL. Moreover, the “MIC AMPH-B Combination” value (A. fumigatus 8004, in combination with Test Compound) worked out at 0.5 µg/mL.
On to `CCC(C)n1ncn(-c2ccc(N3CCN(c4ccc(OCC5COC(Cn6cncn6)(c6ccc(Cl)cc6Cl)O5)cc4)CC3)cc2)c1=O` (stereo not shown) [ITCZ, itraconazole], for which the “MIC ITCZ Combination” value (A. fumigatus 8008, in combination with Test Compound) came out at 0.125 µg/mL. The minimal inhibitory concentration (MIC) (A. fumigatus 8008, drug alone, read-out: MIC ITCZ Alone) stood at 0.5 µg/mL.
`C[C@@H]([C@H](N)C(=O)N[C@H](C(=O)O)[C@H]1OC(n2cc(C=O)nc2O)[C@H](O)[C@@H]1O)[C@H](O)c1ccc(O)cn1` (stereo partly shown) [Nikkomycin X, nikkomycin X]: the “MIC Nikkomycin X Alone” value (A. fumigatus FP1923, drug alone) amounted to 128 µg/mL. For the same compound, under “A. fumigatus FP1923, in combination with Test Compound”, the “MIC Nikkomycin X Combination” value amounted to 4 µg/mL.
Take `CCCCCOc1ccc(-c2cc(-c3ccc(C(=O)NC4CC(O)C(O)NC(=O)C5C(O)C(C)CN5C(=O)C(C(O)CC(N)=O)NC(=O)C(C(O)C(O)c5ccc(O)c(OS(=O)(=O)[O-])c5)NC(=O)C5CC(O)CN5C(=O)C(C(C)O)NC4=O)cc3)no2)cc1.[Na+]` (stereo not shown) [Test Compound]: the “MIC Test Compound Combination” value reads like this: (A. fumigatus 8004, in combination with AMPH-B) 0.0078 µg/mL; (A. fumigatus 8008, in combination with ITCZ) 0.0078 µg/mL; (A. fumigatus FP1923, in combination with Nikkomycin X) “≦0.001 μg/ml”; (A. fumigatus FP1990, in combination with 5-FC) 0.002 µg/mL. The minimum inhibitory concentration (MIC) reads like this: (read-out: MIC Test Compound Alone, A. fumigatus 8004, drug alone) 0.0313 µg/mL; (read-out: MIC Test Compound Alone, A. fumigatus 8008, drug alone) 0.0313 µg/mL; (read-out: MIC Test Compound Alone, A. fumigatus FP1923, drug alone) 0.0039 µg/mL; (read-out: MIC Test Compound Alone, A. fumigatus FP1990, drug alone) 0.0078 µg/mL.

Source of the values: US7375081B2, “Therapeutic combination of a pneumocandin derivative and an antifungal agent” (Astellas Pharma Inc., priority 1999, dated 2008).
